The text below walks through data of ChEMBL document CHEMBL3992566, “Development and Biological Evaluation of a Photoactivatable Small Molecule Microtubule-Targeting Agent” (ACS Med Chem Lett, 2017).

Calls of active or inactive are those of the source. No cut-off for these calls is given here.

The species entered for data set [1] is Sus scrofa. Briefly: Inhibition of colchicine binding to porcine brain tubulin up to 60 uM after 90 mins by fluorescence assay.
The species named for data set [2] is Sus scrofa. Briefly: Inhibition of porcine brain tubulin polymerization at 3 uM by fluorescence assay.
Data set [3] can be described thus: Drug metabolism in human U251 cells assessed as DMNB release up to 100 uM under UV irradiation of 1800 mW for 1 min measured after 72 hrs. Type of data set: ADME, cell-based. Particulars: u-251, 72 h.
Data set [4] deals with U-251. Briefly: Phototoxicity against human U251 cells assessed as reduction in cell viability up to 100 uM under UV irradiation of 1800 mW for 1 min measured after 72 hrs by Cell-Titer Blue assay. Type of data set: functional, cell-based.
Data set [5] relates to U-251. The data set can be described thus: Cytotoxicity against human U251 cells assessed as reduction in cell viability at >40 uM after 72 hrs by Cell-Titer Blue assay. It counts as functional, cell-based.
Data set [6] is described as follows: Photoactivation of prodrug assessed as 4-(4-(2-fluoropyridin-3-yl)phenyl)-N-(4-hydroxyphenyl)butanamide release at 1 mM under UV irradiation of 5400 mW after 1 min by HPLC-MS analysis.
A short description of data set [7]: Photoactivation of prodrug assessed as decay time constant for 4-(4-(2-fluoropyridin-3-yl)phenyl)-N-(4-hydroxyphenyl)butanamide release at 1 mM under UV irradiation of 5400 mW after 1 min by HPLC-MS analysis.
Data set [8] can be described thus: Photoactivation of prodrug assessed as time required to release maximum concentration of 4-(4-(2-fluoropyridin-3-yl)phenyl)-N-(4-hydroxyphenyl)butanamide at 1 mM under UV irradiation of 5400 mW by HPLC-MS analysis.
A short description of data set [9]: Dark toxicity against human U251 cells assessed as reduction in cell viability after 72 hrs by Cell-Titer Blue assay. It counts as cell-based, U-251.
Data set [10] relates to U-251. Briefly: Phototoxicity against human U251 cells assessed as reduction in cell viability under UV irradiation of 1800 mW for 1 min measured after 72 hrs by Cell-Titer Blue assay. Type of data set: functional, cell-based. To be noted: U-251, light or radiation study.
Data set [11] can be described thus: Dark toxicity against patient-derived RN1 cells assessed as reduction in cell viability after 72 hrs by Cell-Titer Blue assay. Particulars: human. Type of data set: cell-based.
Data set [12] can be described thus: Phototoxicity against patient-derived RN1 cells assessed as reduction in cell viability under UV irradiation of 1800 mW for 30 secs measured after 72 hrs by Cell-Titer Blue assay. Type of data set: functional, cell-based. Particulars: Homo sapiens, RN1, light or radiation study.
Data set [13] is described as follows: Effect on kinetics of porcine brain tubulin polymerization at 50 uM under dark condition by fluorescence assay. It counts as ADME, Sus scrofa. To be noted: pig.
The species named for data set [14] is Sus scrofa. Briefly: Inhibition of porcine brain tubulin polymerization at 50 uM under UV irradiation of 1800 mW for 5 mins by fluorescence assay.
The nature of data set [15]: Effect on colchicine binding to porcine brain tubulin up to 60 uM after 90 mins under dark condition by fluorescence assay. Type of data set: ADME, Sus scrofa. To be noted: pig, 1.5 h.
A short description of data set [16]: Disruption of microtubule organization in human U251 cells at 5 uM after 24 hrs under dark condition by DAPI staining based immunofluorescence assay. Type of data set: ADME, cell-based.
Data set [17] in a line: Disruption of microtubule organization in human U251 cells assessed as changes in cell morphology at 5 uM after 24 hrs under dark condition by DAPI staining based immunofluorescence assay. Type of data set: ADME.
Data set [18] is filed under the species Homo sapiens. The data set can be described thus: Disruption of microtubule organization in human U251 cells assessed as cell rounding at 5 uM after 24 hrs under UV irradiation of 1800 mW for 5 mins by DAPI staining based immunofluorescence assay.
The species named for data set [19] is Homo sapiens. Briefly: Disruption of microtubule organization in human U251 cells at 5 uM after 24 hrs under UV irradiation of 1800 mW for 5 mins by DAPI staining based immunofluorescence assay. Type of data set: cell-based.
A short description of data set [20]: Induction of apoptosis in patient-derived RN1 cells at 5 uM after 48 hrs under dark condition by Annexin V staining based assay (reference value: 8.1%). Type of data set: cell-based. To be noted: human, rn1, 48 h.
A short description of data set [21]: Induction of apoptosis in patient-derived RN1 cells assessed as live cells at 5 uM after 48 hrs under UV irradiation of 1800 mW for 30 secs by Annexin V staining based assay relative to control. Type of data set: functional, Homo sapiens.
Data set [22] is described as follows: Induction of apoptosis in patient-derived RN1 cells assessed as early apoptotic cells at 5 uM after 48 hrs under UV irradiation of 1800 mW for 30 secs by Annexin V staining based assay relative to control. It counts as functional, Homo sapiens.
Data set [23] is described as follows: Induction of apoptosis in patient-derived RN1 cells assessed as late apoptotic cells at 5 uM after 48 hrs under UV irradiation of 1800 mW for 30 secs by Annexin V staining based assay relative to control. Type of data set: functional, Homo sapiens.
Data set [24] in a line: Induction of apoptosis in patient-derived RN1 cells assessed as necrotic cells at 5 uM after 48 hrs under UV irradiation of 1800 mW for 30 secs by Annexin V staining based assay relative to control. Type of data set: functional, Homo sapiens.
A short description of data set [25]: Photostability of the compound at 1 mM under UV irradiation of 5400 mW after 20 mins by HPLC-MS analysis.
In data set [26] the test system is U-251. Briefly: Cytotoxicity against human U251 cells assessed as reduction in cell viability after 72 hrs by Cell-Titer Blue assay. Type of data set: functional, cell-based. Particulars: U-251, 72 h.
Data set [27] can be described thus: Cytotoxicity against patient-derived RN1 cells assessed as reduction in cell viability after 72 hrs by Cell-Titer Blue assay. It counts as functional, cell-based. Particulars: Homo sapiens, RN1, 72 h.
The species entered for data set [28] is Sus scrofa. Briefly: Inhibition of porcine brain tubulin polymerization at 50 uM by fluorescence assay.
For data set [29], the species on record is Sus scrofa. Briefly: Inhibition of colchicine binding to porcine brain tubulin after 90 mins by fluorescence assay.
For data set [30], the species on record is Homo sapiens. The data set can be described thus: Disruption of microtubule organization in human U251 cells at 5 uM after 24 hrs by DAPI staining based immunofluorescence assay. It counts as cell-based.
For data set [31], the species on record is Homo sapiens. Briefly: Disruption of microtubule organization in human U251 cells assessed as changes in cell morphology at 5 uM after 24 hrs by DAPI staining based immunofluorescence assay.
Data set [32] is described as follows: Induction of apoptosis in patient-derived RN1 cells at 5 uM after 48 hrs by Annexin V staining based assay (reference value: 8.1%). It counts as functional, Homo sapiens.

Consider `COC(=O)Nc1nc2cc(C(=O)c3cccs3)ccc2[nH]1`, for which the inhibition entry in the data set listed under Sus scrofa [1] was “Active”.
Turning to `CC(=O)O[C@H]1C(=O)[C@@]2(C)[C@H]([C@H](OC(=O)c3ccccc3)[C@]3(O)C[C@H](OC(=O)[C@H](O)[C@@H](NC(=O)c4ccccc4)c4ccccc4)C(C)=C1C3(C)C)[C@]1(OC(C)=O)CO[C@@H]1C[C@@H]2O`, the inhibition entry in the data set filed under Sus scrofa [2] was “inactive”.
For the molecule `COc1cc(COC(=O)C(C)NC(=O)OC(C)(C)C)c([N+](=O)[O-])cc1OC` (stereo unspecified), the Drug metabolism result in [3] is listed as “Metabolite_Detected”. The result in the data set on U-251 [4] was inactive.
Take `O=C(CCCc1ccc(-c2cccnc2F)cc1)Nc1ccc(OCc2ccccc2)cc1`: in the data set on U-251 [5], the result was inactive.
In the case of `CC[C@]1(O)C[C@@H]2CN(CCc3c([nH]c4ccccc34)[C@@](C(=O)OC)(c3cc4c(cc3OC)N(C)[C@H]3[C@@](O)(C(=O)OC)[C@H](OC(C)=O)[C@]5(CC)C=CCN6CC[C@]43[C@@H]65)C2)C1`, the inhibition result in the data set listed under Sus scrofa [2] is “Active”. Also, the inhibition result in the data set listed under Sus scrofa [1] is “inactive”.
A word on the EC50: it is the midpoint of the concentration-response curve. Turning to `COc1cc(COc2ccc(NC(=O)CCCc3ccc(-c4cccnc4F)cc3)cc2)c([N+](=O)[O-])cc1OC`, the Drug metabolism in data set [6] came to 80%. For the same molecule, the TIME was 0.0101 h in [7] and above 0.0333 h in data set [8]. In addition, the EC50 at 72 h worked out at 72 µM in data set [9] and 37.4 µM in data set [11]. The values for the EC50 (in the data set on U-251 [10]; in [12]) were 2.1 µM and 1.2 µM, respectively. Further, the Activity entry is reported as “Not Active” in data set [13]; “Not Active” in data set [15]; “Not Active” in data set [16]; “Not Active” in data set [17]; 12.6% in [20]; 36.95% in [21]. Moreover, the figures for the Activity in data set [22], in [23] and in data set [24] were 20.75%, 41.3% and 0.5%, respectively. In addition, in the data set listed under Sus scrofa [14], the inhibition entry is “Active”. Further, the outcome in the data set filed under Homo sapiens [18] and in the data set filed under Homo sapiens [19] was Active.
Consider `O=C(CCCc1ccc(-c2cccnc2F)cc1)Nc1ccc(O)cc1`, for which, in data set [25], the Stability result is reported as “Stable”. For the same molecule, the concentration for a half-maximal effect (EC50) in the data set with U-251 [26] is 1.3 µM; with U-251 [10], 1.4 µM; in data set [27], 0.3 µM; in [12], 0.7 µM. For the same molecule, the inhibition entry in the data set listed under Sus scrofa [28] is “Active”. The inhibition result in the data set listed under Sus scrofa [29] was “Dose-dependent effect”. For the same molecule, the result in the data set listed under Homo sapiens [30] and in the data set filed under Homo sapiens [31] was Active. The Activity in [32] is recorded as 47.8%.
